From ChEMBL document CHEMBL5674850, “ASAP - Solubility” (2024) come the findings set out here.

Converted amounts (≈) assume the structure as drawn.

A short description of the data set: Kinetic solubility of compound by measuring concentration at pH 7.4 in saturated PBS buffer by UV LCMS/MS using calibration curves. The assay has been performed by Enamine biological services, Bienta Ltd.The protocol is publicly available: dx.doi.org/10.17504/protocols.io.j8nlk8y41l5r/v1. The format is physicochemical. To be noted: PBS buffer.

As a reminder, the kinetic solubility is solubility judged after dilution from a stock solution rather than from solid. On to `CNC(=O)c1cc(Br)cc([C@H](Nc2ccc3c(c2)CNC3)C(=O)NCC(F)F)c1`, for which the kinetic solubility is not below 400 µM. Molecule `NCc1cccc(CNC(=O)[C@@H](NC(=O)OCc2ccccc2)c2ccc(OCc3ccccc3)cc2)c1` returned a solubility (kinetic) of 78 µM (≈ 39.7 µg/mL).

Consider `COCCNC(=O)[C@H](Nc1ccc2c(c1)CNC2)c1cc(Cl)cc(C2CC2)c1`, for which the kinetic solubility was 320 µM (≈ 128 µg/mL). The result for `O=C(Nc1cc(Cl)cc(C(=O)Nc2cccc(-n3nn[nH]c3=O)c2)c1)OCc1ccccc1` reads 107 µM (≈ 49.7 µg/mL). Take `Cn1c(=O)[nH]c2c(C(=O)Nc3ccc4c(c3)CNC4)cc(Br)cc21`: the kinetic solubility was 161 µM (≈ 62.3 µg/mL). `CC(C)CNC(=O)c1cc(Cl)c(F)cc1NS(=O)(=O)c1ccc(Oc2ccccc2Cl)cc1` yielded a kinetic solubility of 4 µM (≈ 2.05 µg/mL). `O=C(NCC(F)F)[C@H](Nc1ccc2c(c1)CNC2)c1cc(Br)cc2nc[nH]c12`: the solubility (kinetic) is not below 400 µM.

`Cc1c(C(=O)Nc2cc(-c3cccnc3)ccn2)cc(C2CC2)n1C` returned a solubility (kinetic) of 176 µM (≈ 58.5 µg/mL). Molecule `CCCCNC(=O)[C@H](Nc1ccc2c(c1)CNC2)c1cc(Cl)cc(C2CC2)c1` yielded a solubility (kinetic) of 379 µM (≈ 151 µg/mL). With `NCc1cccc(NC(=O)c2cc(OCc3ccccc3)ccc2CNC(=O)OCc2ccccc2)c1`, the kinetic solubility amounted to 14 µM (≈ 6.94 µg/mL).

In turn, `Nc1ccncc1-c1cc(F)cc(C(=O)Nc2ccc3c(c2)CNC3)c1` showed a solubility (kinetic) of 392 µM (≈ 137 µg/mL). The result for `N#CCCNC(=O)[C@H](Nc1ccc2c(c1)CNC2)c1cc(Cl)cc(C2CC2)c1` reads 374 µM (≈ 148 µg/mL).

With `CNC(=O)[C@H](Nc1cc(Cl)cc(NC(=O)OCc2ccccc2)c1)c1cccc(-c2nn[nH]n2)c1`, the kinetic solubility was found to be 333 µM (≈ 164 µg/mL). `O=C(Nc1ccc2c(c1)CNC2)c1cc(Cl)cc2ccncc12` came in with a solubility (kinetic) of 181 µM (≈ 58.6 µg/mL).

Regarding `Cn1ncc2c(C(=O)Nc3ccc4c(c3)CNC4)cc(Br)cc21`, the solubility (kinetic) is 392 µM (≈ 146 µg/mL). `COc1ccc(-c2nc3c(C(=O)Nc4ccc5c(c4)CNC5)cc(F)cc3[nH]2)nn1`: the solubility (kinetic) is 16 µM (≈ 6.47 µg/mL). On to `O=C(Nc1cc(Cl)cc(C(=O)Nc2cccc(C3CCNCC3)c2)c1)OCc1ccccc1`, for which the kinetic solubility was 126 µM (≈ 58.5 µg/mL).

Molecule `NCc1cccc(NC(=O)CN(C(=O)OCc2ccccc2)c2ccc(OCc3ccccc3)cc2)c1` had a kinetic solubility of 56 µM (≈ 27.8 µg/mL). The result for `N#C[C@H](Nc1ccc2c(c1)CNC2)c1cc(Cl)cc2[nH]ncc12` reads 297 µM (≈ 96.2 µg/mL).
